Patent US20240401154A1, “SYNTHESIS AND PREPARATION OF ULTRA-LOW VISCOSITY AND HIGH MAGNETIC SUSCEPTIBILITY MAGNETIC IONIC LIQUIDS” (priority 2023, published 2024)

Experiment: Magnetic properties by SQUID magnetometer
Assay type: physicochemical
Conditions: applied magnetic field H=20 kOe; Curie-Weiss fit
Procedure: Magnetic properties were analyzed using a magnetic susceptibility balance (MSB, Sherwood Scientific, Cambridge, UK) and a Quantum Design Superconducting Quantum Interference Device (SQUID) magnetometer (MPMS XL-7). The magnetic properties of transition metal MILs were further studied using a SQUID magnetometer to confirm their paramagnetic nature as well as if any magnetic transition occurs in the samples.
The magnetic properties of transition metal MILs were further studied using a SQUID magnetometer to confirm their paramagnetic nature as well as if any magnetic transition occurs in the samples.
The calculated μeff of 5.21μB for the [Ni(C6-DGE)6][Ni(hfacac)3]2 MIL (FIG. 12A) from SQUID matches quite well with the theoretical μtheo value (5.31μB, TABLE 1) and also with that obtained from MSB measurements (5.48μB).

CCCCCCOC(=O)COCC(=O)OCCCCCC.CCCCCCOC(=O)COCC(=O)OCCCCCC.CCCCCCOC(=O)COCC(=O)OCCCCCC.CCCCCCOC(=O)COCC(=O)OCCCCCC.CCCCCCOC(=O)COCC(=O)OCCCCCC.CCCCCCOC(=O)COCC(=O)OCCCCCC.O=C(C=C([O-])C(F)(F)F)C(F)(F)F.O=C(C=C([O-])C(F)(F)F)C(F)(F)F.O=C(C=C([O-])C(F)(F)F)C(F)(F)F.O=C(C=C([O-])C(F)(F)F)C(F)(F)F.O=C(C=C([O-])C(F)(F)F)C(F)(F)F.O=C(C=C([O-])C(F)(F)F)C(F)(F)F.[Mn+2].[Mn+2].[Mn+2] [MIL 3]
μeff from SQUID: 8.31 μB
